Source: PubChem BioAssay AID2060883 (Molecular Pharmacology Branch, DTP, NCI, 2025)

System: 843782-103-R-J1-PDC complex spheroid viability
Experiment: Anticancer human tumor 843782-103-R-J1-PDC patient-derived lung adenocarcinoma cell line growth inhibition [RAS]
Conditions: for IC50: curve of first compound; for viability, T/C: stronger effect = lower value
Outline: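 Tumour cells grown as complex spheroids with HUVEC endothelial cells and mesenchymal stem cells, treated with RAS pathway inhibitor combinations. Each agent spans half-log steps from near clinical Cmax, or 10 microM where Cmax is unknown.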

[1] = second compound 0.000949 µM, first compound 0.0316 µM
[2] = second compound 0.000949 µM, first compound 0.1 µM
[3] = second compound 0.000949 µM, first compound 0.316 µM
[4] = second compound 0.000949 µM, first compound 1 µM
[5] = second compound 0.000949 µM, first compound 3.16 µM
[6] = second compound 0.000949 µM, first compound 10 µM
[7] = second compound 0.003 µM, first compound 0.0316 µM
[8] = second compound 0.003 µM, first compound 0.1 µM
[9] = second compound 0.003 µM, first compound 0.316 µM
[10] = second compound 0.003 µM, first compound 1 µM
[11] = second compound 0.003 µM, first compound 3.16 µM
[12] = second compound 0.003 µM, first compound 10 µM
[13] = second compound 0.00949 µM, first compound 0.0316 µM
[14] = second compound 0.00949 µM, first compound 0.1 µM
[15] = second compound 0.00949 µM, first compound 0.316 µM
[16] = second compound 0.00949 µM, first compound 1 µM
[17] = second compound 0.00949 µM, first compound 3.16 µM
[18] = second compound 0.00949 µM, first compound 10 µM
[19] = second compound 0.03 µM, first compound 0.0316 µM
[20] = second compound 0.03 µM, first compound 0.1 µM
[21] = second compound 0.03 µM, first compound 0.316 µM
[22] = second compound 0.03 µM, first compound 1 µM
[23] = second compound 0.03 µM, first compound 3.16 µM
[24] = second compound 0.03 µM, first compound 10 µM
[25] = second compound 0.0949 µM, first compound 0.0316 µM
[26] = second compound 0.0949 µM, first compound 0.1 µM
[27] = second compound 0.0949 µM, first compound 0.316 µM
[28] = second compound 0.0949 µM, first compound 1 µM
[29] = second compound 0.0949 µM, first compound 3.16 µM
[30] = second compound 0.0949 µM, first compound 10 µM
[31] = second compound 0.3 µM, first compound 0.0316 µM
[32] = second compound 0.3 µM, first compound 0.1 µM
[33] = second compound 0.3 µM, first compound 0.316 µM
[34] = second compound 0.3 µM, first compound 1 µM
[35] = second compound 0.3 µM, first compound 3.16 µM
[36] = second compound 0.3 µM, first compound 10 µM
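Note: viability read after seven days of compound exposure.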

CC(C)NCC(C(=O)N1CCN(c2ncnc3c2C(C)CC3O)CC1)c1ccc(Cl)cc1 (centres undefined) + CCn1c(-c2cccnc2C(C)OC)c2c3cc(ccc31)N1CCOC(CC(NC(=O)C(C(C)C)N(C)C(=O)C3(F)CCN(C(=O)C#CC(C)(C)N(C)C)CC3)C(=O)N3CCCC(N3)C(=O)OCC(C)(C)C2)C1
IC50 (second compound 0.000949 µM): 0.287 µM
IC50 (second compound 0.003 µM): 0.325 µM
IC50 (second compound 0.00949 µM): 0.402 µM
IC50 (second compound 0.03 µM): 0.309 µM
IC50 (second compound 0.0949 µM): 0.403 µM
IC50 (second compound 0.3 µM): 0.174 µM
viability, T/C [1]: 74.5%
viability, T/C [2]: 68.8%
viability, T/C [3]: 48.5%
viability, T/C [4]: 19.6%
viability, T/C [5]: 10.8%
viability, T/C [6]: 4.86%
viability, T/C [7]: 74.1%
viability, T/C [8]: 71.3%
viability, T/C [9]: 47.5%
viability, T/C [10]: 30%
viability, T/C [11]: 12.4%
viability, T/C [12]: 7.3%
viability, T/C [13]: 68.2%
viability, T/C [14]: 65.3%
viability, T/C [15]: 55.9%
viability, T/C [16]: 30%
viability, T/C [17]: 13.9%
viability, T/C [18]: 4.79%
viability, T/C [19]: 72.9%
viability, T/C [20]: 66%
viability, T/C [21]: 50.5%
viability, T/C [22]: 24.8%
viability, T/C [23]: 13.8%
viability, T/C [24]: 6.84%
viability, T/C [25]: 70.8%
viability, T/C [26]: 66.3%
viability, T/C [27]: 56.9%
viability, T/C [28]: 27.1%
viability, T/C [29]: 11.5%
viability, T/C [30]: 5.05%
viability, T/C [31]: 63.4%
viability, T/C [32]: 60%
viability, T/C [33]: 39.8%
viability, T/C [34]: 23.2%
viability, T/C [35]: 11.3%
viability, T/C [36]: 5.97%

CCC(CC)c1cc(NC2CCC(N)C2)n2nccc2n1 (centres undefined) + CCn1c(-c2cccnc2C(C)OC)c2c3cc(ccc31)N1CCOC(CC(NC(=O)C(C(C)C)N(C)C(=O)C3(F)CCN(C(=O)C#CC(C)(C)N(C)C)CC3)C(=O)N3CCCC(N3)C(=O)OCC(C)(C)C2)C1
IC50 (second compound 0.000949 µM): 1.02 µM
IC50 (second compound 0.003 µM): 0.754 µM
IC50 (second compound 0.00949 µM): 1.04 µM
IC50 (second compound 0.03 µM): 1.07 µM
IC50 (second compound 0.0949 µM): 0.768 µM
IC50 (second compound 0.3 µM): 0.883 µM
viability, T/C [1]: 70.7%
viability, T/C [2]: 66.5%
viability, T/C [3]: 73.8%
viability, T/C [4]: 50.8%
viability, T/C [5]: 1.84%
viability, T/C [6]: 0.99%
viability, T/C [7]: 70.5%
viability, T/C [8]: 87%
viability, T/C [9]: 67.8%
viability, T/C [10]: 44.1%
viability, T/C [11]: 1.8%
viability, T/C [12]: 0.91%
viability, T/C [13]: 73.5%
viability, T/C [14]: 73.7%
viability, T/C [15]: 78.1%
viability, T/C [16]: 51.9%
viability, T/C [17]: 3.01%
viability, T/C [18]: 1.66%
viability, T/C [19]: 78.4%
viability, T/C [20]: 82.8%
viability, T/C [21]: 71.9%
viability, T/C [22]: 53.5%
viability, T/C [23]: 1.5%
viability, T/C [24]: 1.09%
viability, T/C [25]: 74.6%
viability, T/C [26]: 67.4%
viability, T/C [27]: 65.7%
viability, T/C [28]: 44.8%
viability, T/C [29]: 1.32%
viability, T/C [30]: 0.88%
viability, T/C [31]: 77.3%
viability, T/C [32]: 67.2%
viability, T/C [33]: 61.8%
viability, T/C [34]: 48.4%
viability, T/C [35]: 1.4%
viability, T/C [36]: 0.57%
